# In the supplement of paper PMC10307832:
# Key:
# Experiment in all cases: relative viability (nuclei count vs DMSO), 5 days (fraction); higher = more cells survive
# NCI-H727 = system: NCI-H727
# In short: (§1)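 Relative viability was taken as the ratio of nuclei in treated wells to nuclei in vehicle wells. Lung cancer cell lines in 1536-well plates received compounds by pin tool one day after seeding, either one drug alone or a fixed anchor-drug dose plus five library-drug doses (not always all listed) in √10 steps. Nuclei were counted on 4× images after 5 days of treatment, and values are medians of duplicate plates.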
# NCI-H1944 = system: NCI-H1944
# In short: as §1
# NCI-H3122 = system: NCI-H3122
# In short: as §1
# COR-L 105 = system: COR-L 105
# In short: as §1
# PC-14 = system: PC-14
# In short: as §1
# NCI-H661 = system: NCI-H661
# In short: as §1
# NCI-H358 = system: NCI-H358
# In short: as §1
# SK-LU-1 = system: SK-LU-1
# In short: as §1
# ChaGo-K-1 = system: ChaGo-K-1
# In short: as §1
# HCC-827 = system: HCC-827
# In short: as §1
# LCLC-103H = system: LCLC-103H
# In short: as §1
# HCC-366 = system: HCC-366
# In short: as §1
# HCC-44 = system: HCC-44
# In short: as §1
# NCI-H2342 = system: NCI-H2342
# In short: as §1
# HCC-78 = system: HCC-78
# In short: as §1
# UMC-11 = system: UMC-11
# In short: as §1
# EPLC-272H = system: EPLC-272H
# In short: as §1
# HCC-15 = system: HCC-15
# In short: as §1
# NCI-H1792 = system: NCI-H1792
# In short: as §1
# NCI-H1437 = system: NCI-H1437
# In short: as §1
# SK-MES-1 = system: SK-MES-1
# In short: as §1
# NCI-H2085 = system: NCI-H2085
# In short: as §1
compound,measurement,setting,value
COCC1(CO)C(=O)C2CCN1CC2 (centres undefined) [PRIMA-1MET] + N=C(N)NC(=N)NCCc1ccccc1 [Phenformin] (partner 250 µM),relative viability,NCI-H727; first compound 0.2 µM,0.472
same,relative viability,NCI-H727; first compound 0.6325 µM,0.395
same,relative viability,NCI-H727; first compound 2 µM,0.387
same,relative viability,NCI-H727; first compound 6.325 µM,0.342
same,relative viability,NCI-H727; first compound 20 µM,0.124
same,relative viability,NCI-H1944; first compound 0.2 µM,0.215
same,relative viability,NCI-H1944; first compound 0.6325 µM,0.189
same,relative viability,NCI-H1944; first compound 2 µM,0.155
same,relative viability,NCI-H1944; first compound 6.325 µM,0.201
same,relative viability,NCI-H1944; first compound 20 µM,0.214
same,relative viability,NCI-H3122; first compound 0.2 µM,0.367
same,relative viability,NCI-H3122; first compound 0.6325 µM,0.35
same,relative viability,NCI-H3122; first compound 6.325 µM,0.392
same,relative viability,NCI-H3122; first compound 20 µM,0.343
same,relative viability,COR-L 105; first compound 0.2 µM,0.547
same,relative viability,COR-L 105; first compound 0.6325 µM,0.438
same,relative viability,COR-L 105; first compound 2 µM,0.373
same,relative viability,COR-L 105; first compound 6.325 µM,0.459
same,relative viability,COR-L 105; first compound 20 µM,0.124
same,relative viability,PC-14; first compound 0.2 µM,0.621
same,relative viability,PC-14; first compound 0.6325 µM,0.503
same,relative viability,PC-14; first compound 2 µM,0.735
same,relative viability,PC-14; first compound 6.325 µM,0.379
same,relative viability,PC-14; first compound 20 µM,0.0559
same,relative viability,NCI-H661; first compound 0.2 µM,0.304
same,relative viability,NCI-H661; first compound 0.6325 µM,0.261
same,relative viability,NCI-H661; first compound 2 µM,0.274
same,relative viability,NCI-H661; first compound 6.325 µM,0.288
same,relative viability,NCI-H661; first compound 20 µM,0.292
same,relative viability,NCI-H358; first compound 0.2 µM,0.341
same,relative viability,NCI-H358; first compound 2 µM,0.253
same,relative viability,NCI-H358; first compound 6.325 µM,0.279
same,relative viability,NCI-H358; first compound 20 µM,0.0042
same,relative viability,SK-LU-1; first compound 0.2 µM,0.545
same,relative viability,SK-LU-1; first compound 0.6325 µM,0.559
same,relative viability,SK-LU-1; first compound 2 µM,0.326
same,relative viability,SK-LU-1; first compound 6.325 µM,0.606
same,relative viability,SK-LU-1; first compound 20 µM,0.0941
same,relative viability,ChaGo-K-1; first compound 0.2 µM,0.481
same,relative viability,ChaGo-K-1; first compound 0.6325 µM,0.439
same,relative viability,ChaGo-K-1; first compound 2 µM,0.514
same,relative viability,ChaGo-K-1; first compound 6.325 µM,0.503
same,relative viability,ChaGo-K-1; first compound 20 µM,0.459
same,relative viability,HCC-827; first compound 0.2 µM,0.433
same,relative viability,HCC-827; first compound 0.6325 µM,0.416
same,relative viability,HCC-827; first compound 2 µM,0.344
same,relative viability,HCC-827; first compound 6.325 µM,0.367
same,relative viability,HCC-827; first compound 20 µM,0.372
same,relative viability,LCLC-103H; first compound 0.2 µM,0.354
same,relative viability,LCLC-103H; first compound 0.6325 µM,0.283
same,relative viability,LCLC-103H; first compound 2 µM,0.315
same,relative viability,LCLC-103H; first compound 6.325 µM,0.355
same,relative viability,LCLC-103H; first compound 20 µM,0.362
same,relative viability,HCC-366; first compound 0.2 µM,0.651
same,relative viability,HCC-366; first compound 0.6325 µM,0.611
same,relative viability,HCC-366; first compound 2 µM,0.484
same,relative viability,HCC-366; first compound 6.325 µM,0.633
same,relative viability,HCC-366; first compound 20 µM,0.462
same,relative viability,HCC-44; first compound 0.2 µM,0.265
same,relative viability,HCC-44; first compound 0.6325 µM,0.137
same,relative viability,HCC-44; first compound 2 µM,0.244
same,relative viability,HCC-44; first compound 6.325 µM,0.2
same,relative viability,HCC-44; first compound 20 µM,0.236
same,relative viability,NCI-H2342; first compound 0.2 µM,0.58
same,relative viability,NCI-H2342; first compound 0.6325 µM,0.667
same,relative viability,NCI-H2342; first compound 2 µM,0.462
same,relative viability,NCI-H2342; first compound 6.325 µM,0.608
same,relative viability,NCI-H2342; first compound 20 µM,0.543
same,relative viability,HCC-78; first compound 0.2 µM,0.7
same,relative viability,HCC-78; first compound 0.6325 µM,0.648
same,relative viability,HCC-78; first compound 6.325 µM,0.658
same,relative viability,HCC-78; first compound 20 µM,0.599
same,relative viability,UMC-11; first compound 0.2 µM,0.348
same,relative viability,UMC-11; first compound 0.6325 µM,0.31
same,relative viability,UMC-11; first compound 2 µM,0.264
same,relative viability,UMC-11; first compound 6.325 µM,0.343
same,relative viability,UMC-11; first compound 20 µM,0.254
same,relative viability,EPLC-272H; first compound 2 µM,0.286
same,relative viability,EPLC-272H; first compound 6.325 µM,0.314
same,relative viability,EPLC-272H; first compound 20 µM,0.085
same,relative viability,HCC-15; first compound 0.2 µM,0.427
same,relative viability,HCC-15; first compound 0.6325 µM,0.471
same,relative viability,HCC-15; first compound 2 µM,0.439
same,relative viability,HCC-15; first compound 6.325 µM,0.451
same,relative viability,HCC-15; first compound 20 µM,0.172
same,relative viability,NCI-H1792; first compound 0.2 µM,0.352
same,relative viability,NCI-H1792; first compound 0.6325 µM,0.272
same,relative viability,NCI-H1792; first compound 6.325 µM,0.238
same,relative viability,NCI-H1792; first compound 20 µM,0.319
same,relative viability,NCI-H1437; first compound 0.2 µM,0.322
same,relative viability,NCI-H1437; first compound 0.6325 µM,0.331
same,relative viability,NCI-H1437; first compound 2 µM,0.259
same,relative viability,NCI-H1437; first compound 6.325 µM,0.298
same,relative viability,NCI-H1437; first compound 20 µM,0.294
same,relative viability,SK-MES-1; first compound 0.2 µM,0.724
same,relative viability,SK-MES-1; first compound 0.6325 µM,0.731
same,relative viability,SK-MES-1; first compound 2 µM,0.722
same,relative viability,SK-MES-1; first compound 6.325 µM,0.663
same,relative viability,SK-MES-1; first compound 20 µM,0.615
same,relative viability,NCI-H2085; first compound 0.2 µM,0.727
same,relative viability,NCI-H2085; first compound 0.6325 µM,0.62
same,relative viability,NCI-H2085; first compound 2 µM,0.432
same,relative viability,NCI-H2085; first compound 6.325 µM,0.449
same,relative viability,NCI-H2085; first compound 20 µM,0.272
